Assay results taken from patent publication US20130115671A1, “ENZYMES FROM CONIDIOBOLUS BREFELDIANUS AND PROCESS FOR PREPARATION THEREOF” (Council of Scientific and Industrial Research, priority 2010, published 2013).
Read-outs that look alike come from different tables or passages of the source.

Key:
[1] = test system: protease from Conidiobolus brefeldianus MTCC 5185; test: Stability of protease in presence of organic solvents at 28° C.; assay type: physicochemical; set-up: key to residual activity of protease, 0 h / residual activity of protease, 12 h: % of initial activity with respective solvent (initial = 100%); conditions: crude protease, 20% (v/v) solvent
Procedure: This example illustrates the effect of water miscible as well as water immiscible organic solvents on stability of crude protease at 28° C. […] Samples were removed at different time intervals and residual activity was estimated. Sample without organic solvent served as control. Initial activity with respective solvents was taken as 100% (Table 17). […] (Table 17).

[2] = test system: protease from Conidiobolus brefeldianus MTCC 5185; test: Stability of protease in presence of organic solvents at 37° C.; assay type: physicochemical; conditions: 20% (v/v) solvent; for Residual Activity (%) of protease, 30 min: pH 7, 30 min; for Residual Activity (%) of protease, 60 min: pH 7, 60 min; for Residual Activity (%) of protease, 120 min: pH 7, 120 min; for Residual Activity (%) of protease, 240 min: pH 7, 240 min; for Residual Activity (%) of protease, 0: crude protease, pH 7, 0 min
Procedure: This example illustrates the effect of water miscible as well as water immiscible organic solvents on stability of crude protease at 37° C. […] Samples were removed at different time intervals and residual activity was estimated. Sample without organic solvent served as control.

[3] = test system: protease secreted by Conidiobolus brefeldianus MTCC 5185; test: Effect of metals on protease activity; assay type: biochemical
[4] = test system: protease from Conidiobolus brefeldianus MTCC 5185
Procedure: This example illustrates the stability of the protease in presence of salts. […] Aliquots were removed at regular intervals of 30 min and residual activity was estimated at 50° C., pH 9.

[5] = test system: protease of Conidiobolus brefeldianus MTCC 5185; test: Effect of inhibitors on protease activity (PMSF, EDTA, iodoacetate, DMSO); assay type: biochemical
Text: This example illustrates the effect of inhibitors on protease activity of Conidiobolus brefeldianus MTCC 5185. Following inhibitors were studied: phenylmethylsulfonyl fluoride (PMSF), ethylene-diaminetetraacetic acid (EDTA), iodoacetic acid, and dimeth ylsulphoxide (DMSO). The crude culture filtrate grown as described in example 3 was concentrated by ultra-filtration on PM-10 and YM-3 membranes as described in example 27 and used for inhibition studies. Both the protease preparations were pre-incubated in 100 mM Tris-HCl buffer (pH 8.0) with each inhibitor for 1 h and the residual protease activity was measured at 50° C., pH 9.0. Protease without inhibitor served as control.

[6] = test system: protease from Conidiobolus brefeldianus MTCC 5185; test: Stability of protease at 50° C. in presence of sugar alcohols; assay type: physicochemical; set-up: unit not given here
Procedure: Ultrafiltered protease as described in example 27 was incubated at 50° C. in presence of glycerol, mannitol, sorbitol and xylitol at 20% concentration up to 3 h. Aliquots were removed at regular intervals of 30 min and residual activity was estimated at 50° C., pH 9.

[7] = metal 5 mM in assay mixture, crude protease
[8] = pre-incubated 1 h, pH 8.0, 20 mM EDTA, 10 mM Iodoacetate, 1 mM PMSF (in DMSO), DMSO

SMILES | residual activity of protease, 0 h [1] | residual activity of protease, 5 h [1] | residual activity of protease, 12 h [1] | Residual Activity (%) of protease, 30 min [2] | Residual Activity (%) of protease, 60 min [2] | Residual Activity (%) of protease, 120 min [2] | Residual Activity (%) of protease, 240 min [2] | Residual Activity (%) of protease, 0 [2] | Relative Activity (%) of protease [3, 7] | further results
CC(C)=O [Acetone, acetone] | 100 | 95.66 | 55.51 | 91.66% | 81.10% | 60.57% | 29.53% | 100% |  | 
CC#N [Acetonitrile, acetonitrile] | 100 | 98.31 | 49.90 | 37.19% | 36.40% | 17.52% | 13.45% | 100% |  | 
[Ca+2].[Cl-].[Cl-] [CaCl2, Calcium chloride] |  |  |  |  |  |  |  |  |  | Relative Activity (%) of protease [3]: 118.25%; effect on protease activity [3]: active; Residual Activity (%) of protease at 50° C. ([4]; 10 mM CaCl2, 0.5M NaCl, 0.5M glycine or 15% (NH4)2SO4, 0 min): 100.00%; Residual Activity (%) of protease at 50° C. ([4]; salt concentration as in column head, 30 min): 91.70%; Residual Activity (%) of protease at 50° C. ([4]; salt concentration as in column head, 60 min): 83.17%; Residual Activity (%) of protease at 50° C. ([4]; salt concentration as in column head, 90 min): 70.83%; Residual Activity (%) of protease at 50° C. ([4]; salt concentration as in column head, 120 min): 63.83%; Residual Activity (%) of protease at 50° C. ([4]; salt concentration as in column head, 180 min): 54.65%; Residual Activity (%) of protease at 50° C. ([4]; salt concentration as in column head, 180 min, listed as Calcium chloride): around 55%
[Cl][Cd][Cl] [CdCl2] |  |  |  |  |  |  |  |  | 114.30% | effect on protease activity ([3]; metal 5 mM): active
[Cl-].[Cl-].[Co+2] [CoCl2] |  |  |  |  |  |  |  |  |  | Relative Activity (%) of protease [3]: 118.71%; effect on protease activity [3]: active
[Cl][Cu][Cl] [CuCl2] |  |  |  |  |  |  |  |  | 12.78% | 
O=C(O)CN(CCN(CC(=O)O)CC(=O)O)CC(=O)O [EDTA, ethylene-diaminetetraacetic acid] |  |  |  |  |  |  |  |  |  | Inhibition (%) PM-10 Retentate [5, 8]: 0.0%; Inhibition (%) YM-3 Retentate [5, 8]: 3.93%
[Cl][Hg][Cl] [HgCl2] |  |  |  |  |  |  |  |  | 3.27% | effect on protease activity ([3]; metal 5 mM): totally inhibited
O=C(O)CI [Iodoacetate, iodoacetic acid] |  |  |  |  |  |  |  |  |  | Inhibition (%) PM-10 Retentate ([5]; pH 8): 0.0%; Inhibition (%) YM-3 Retentate ([5]; pH 8): 16.54%
CC(C)O [Isopropanol, isopropanol] | 100 | 100.29 | 57.79 | 46.06% | 34.35% | 18.73% | 17.11% | 100% |  | 
[Cl-].[K+] [KCl] |  |  |  |  |  |  |  |  | 158.50% | effect on protease activity ([3]; metal 5 mM): active
OC[C@@H](O)[C@@H](O)[C@H](O)[C@H](O)CO [Mannitol, mannitol] |  |  |  |  |  |  |  |  |  | residual activity of protease at 50° C. ([6]; 20% sugar alcohol, 30 min): 74.06; residual activity of protease at 50° C. ([6]; 20% sugar alcohol, 60 min): 64.42; residual activity of protease at 50° C. ([6]; 20% sugar alcohol, 90 min): 58.13; residual activity of protease at 50° C. ([6]; 20% sugar alcohol, 120 min): 48.66; residual activity of protease at 50° C. ([6]; 20% sugar alcohol, 180 min): 40.71; residual activity of protease at 50° C. ([6]; ultrafiltered protease with 20% sugar alcohol, 0 min): 100
CO [Methanol, methanol] | 100 | 100.13 | 52.64 | 59.43% | 59.45% | 48.36% | 16.60% | 100% |  | 
